The source of these data is patent US5270302A, “Derivatives of tetrapeptides as CCK agonists” (priority 1991, dated 1993).

Experiment [1] has as its target T1, Type-A CCK receptor (Cavia porcellus, UniProt Q63931).
T1 construct: Cortical and pancreatic membranes were prepared as described; from tissue; host or cells: guinea pig pancreas membranes
T1 sequence (Q63931 1-430): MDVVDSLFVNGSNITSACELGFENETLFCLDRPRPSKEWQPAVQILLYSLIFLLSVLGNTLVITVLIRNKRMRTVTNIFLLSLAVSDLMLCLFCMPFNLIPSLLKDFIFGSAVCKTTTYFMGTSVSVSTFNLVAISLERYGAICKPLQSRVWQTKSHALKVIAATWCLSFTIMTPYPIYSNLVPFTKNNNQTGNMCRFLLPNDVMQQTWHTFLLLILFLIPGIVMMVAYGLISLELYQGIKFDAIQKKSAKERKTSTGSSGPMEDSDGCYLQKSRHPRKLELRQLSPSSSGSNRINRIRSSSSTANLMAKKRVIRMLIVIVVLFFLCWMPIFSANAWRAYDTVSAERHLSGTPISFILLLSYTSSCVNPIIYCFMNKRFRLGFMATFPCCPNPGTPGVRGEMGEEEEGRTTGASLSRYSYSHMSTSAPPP
In words: Radioligand binding of [125I]BH-CCK-8 in guinea pig pancreatic membrane preparations. Particulars: guinea pig pancreatic membranes, 37° C., 150 min. The source says:
(§1) CCK-8 [Asp-Tyr(SO3 H)-Met-Gly-Trp-Met-Asp-PheNH2 ], bestatin and phosphoramidion were purchased from Peptide International (Louisville, Ky.). EGTA (ethylene glycol-bis-(β-aminoethyl) N,N,N',N'-tetraacetic acid), HEPES (4-(2-hydroxyethyl)-1-piperazine-enthanesulfonic acid) and BSA (bovine serum albumin) were purchased from Sigma Chemical Co. (St. Louis, Mo.). [^125 I]-Bolton-Hunteer (BH-CCK-8) (specific activity, 2200 Ci/mmol) was obtained from New England Nuclear (Boston, Mass.). Male guinea pigs, 250 to 325 g, were obtained from Scientific Small Animal Laboratory and Farm (Arlington Heights, Ill.). Collagenase, code CLSPA was purchased from Worthington (Frehold, N.J.).
(§2) Protocol For Radioligand Binding Experiments in Guinea Pig Cerebral Cortical and Pancreatic Membrane Preparations
(§3) Cortical and pancreatic membranes were prepared as described (Lin and Miller; J. Pharmacol. Exp. Ther. 1985, 232:775-780,). In brief, cortex and pancreas were removed and rinsed with ice-cold saline. Visible fat and connective tissues were removed from the pancreas. […] The homogenates were entrifuged for 10 minutes at 1075×g and pellets were discarded. The supernatants were saved and centrifuged at 38,730×g for 20 minutes. The resultant pellets were rehomogenized in 25 mL of 50 mM Tris-HCl buffer with a Teflon-glass homogenizer, 5 up and down strokes. The homogenates were centrifuged again at 38,730×g for 20 minutes. Pellets werre then resuspended in 20 mM HEPES, containing 1 mM EGTA, 118 mM NaCl, 4.7 mM KCl, 5 mM MgCl2, 100 μM bestatin, 3 μM phosphoramidon, pH 7.4 at 22° C. with a Teflon-glass homogenizer, 15 up and down strokes. Resuspension volume for the cortex was 15-18 mL per gram of original wet weight and 60 mL per gram for the pancreas.
(§4) [^125 I]Bolton-Hunter CCK-8 and test compounds were diluted with HEPES-EGTA-salt buffer (see above) containing 0.5% BSA. To 1 mL Skatron polystyrene tubes were added 25 μL of test compounds, 25 μL of [^125 I]BH-CCK-8 and 200 μL of membrane suspension. The final BSA concentration was 0.1%. The cortical tissues were incubated at 30° C. for 150 minutes and pancreatic tissues were incubated at 37° C. for 150 min. Incubations were terminated by filtration using Skatron Cell Harvester and SS32 microfiber filter mats. […] IC50 s were determined from the Hill analysis.

The target in experiment [2] is T2, Type-B CCK receptor (Cavia porcellus, UniProt H0VZC5).
T2 construct: Cortical and pancreatic membranes were prepared as described; from tissue; host or cells: guinea pig cerebral cortex membranes
T2 sequence (H0VZC5 1-426): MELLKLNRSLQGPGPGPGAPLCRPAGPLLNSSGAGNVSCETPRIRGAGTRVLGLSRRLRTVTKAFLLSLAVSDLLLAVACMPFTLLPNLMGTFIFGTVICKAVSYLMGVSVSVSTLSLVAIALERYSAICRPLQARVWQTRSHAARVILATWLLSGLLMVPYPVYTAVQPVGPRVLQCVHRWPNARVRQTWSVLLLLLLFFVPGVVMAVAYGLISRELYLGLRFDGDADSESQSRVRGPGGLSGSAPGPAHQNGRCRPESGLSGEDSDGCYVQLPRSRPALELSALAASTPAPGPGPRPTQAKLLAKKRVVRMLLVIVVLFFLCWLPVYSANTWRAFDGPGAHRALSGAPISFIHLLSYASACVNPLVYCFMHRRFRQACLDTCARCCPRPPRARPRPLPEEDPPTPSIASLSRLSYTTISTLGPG
In words: Radioligand binding of [125I]BH-CCK-8 in guinea pig cerebral cortical membrane preparations.
Source text: as §1, §2, §3, §4

[3] abbreviates: IC50 (nM) 125I-BH-CCK-8 Type-A receptor.
The mark [4] stands for this setting: IC50 (nM) 125I-BH-CCK-8 Type-B receptor, guinea pig cortical membranes, 30° C., 150 minutes.
The mark [5] stands for this setting: read-out: IC50 (nM) 125I-BH-CCK-8 Type-A receptor.
The mark [6] stands for this setting: guinea pig cortical membranes, 30° C., 150 minutes, read-out: IC50 (nM) 125I-BH-CCK-8 Type-B receptor.

Structures are written as SMILES. Read-outs that look alike come from different tables or passages of the source. *1 amine or outer side, *2 acyl side, *3 side chain or, on linkers, in order; H or OH if unused. Where a SMILES comes first, the peptide text is derived from it. Side-chain parts run from the residue outwards. [ ]: non-standard residue; d: D form. The star is where a group is joined. 1Nal = N[C@@H](Cc1cccc2ccccc12)C(=O)O; Desaminotyrosyl = O=C(CCc1ccc(O)cc1)*; X12 = O=C(C=Cc1ccc(C(F)(F)F)cc1)*; X10 = COc1ccc(C=CC(=O)*)c(OC)c1; NMeD = CN[C@@H](CC(=O)O)C(=O)O; X9 = CN(C)c1ccc(C=CC(=O)*)cc1; 3Abz = Nc1cccc(C(=O)O)c1; X17 = O=C(C=Cc1ccccc1O)*; βNA = c1ccc2cc(N*)ccc2c1; 2Abz = Nc1ccccc1C(=O)O; X26 = Clc1cccc(Cl)c1N*; Boc = CC(C)(C)OC(=O)*; X24 = CC(C)c1ccccc1N*; X3 = O=C(C=Cc1cccs1)*; CO = O=C([*:1])[*:2]

For orientation: IC50 means the concentration that gives 50% inhibition. `Cc1ccccc1NC(=O)NCCCC[C@H](NC(=O)C(C)(N)Cc1c[nH]c2ccccc12)C(=O)N[C@@H](CC(=O)O)C(=O)N(C)[C@@H](Cc1ccccc1)C(N)=O` (single isomer, unassigned; isomer a) [Example 98, (α-Methyl)Trp-Lys(ε-N-(2-methylphenyl)aminocarbonyl)-Asp-(NMe)PheNH2 (Isomer A)]: the results for the concentration for half-maximal inhibition (IC50) in experiment [1] (setting [3]) and in experiment [2] (setting [4]) were 4.9 nM and 3200 nM, respectively.
In the same order, the values of `Cc1ccccc1NC(=O)NCCCC[C@H](NC(=O)C(C)(N)Cc1c[nH]c2ccccc12)C(=O)N[C@@H](CC(=O)O)C(=O)N(C)[C@@H](Cc1ccccc1)C(N)=O` (single isomer, unassigned; isomer b) [Example 99, (α-Methyl)Trp-Lys(ε-N-(2-methylphenyl)aminocarbonyl)-Asp-(NMe)PheNH2 (Isomer B)] are 67 nM and over 10000 nM.
For `CC(C)(C)OC(=O)N[C@@H](Cc1c[nH]c2ccccc12)C(=O)N[C@@H](CCCCNC(=O)C=Cc1ccc(C(F)(F)F)cc1)C(=O)N[C@@H](CC(=O)O)C(=O)N[C@@H](Cc1ccccc1)C(N)=O` [Example 8, t-BOC-Trp-Lys(ε-N-(4-trifluoromethylcinnamoyl))-Asp-PheNH2] (Boc-WK(X12)DF-NH2), the IC50 came out at 200 nM in experiment [1] (setting [5]) and 5300 nM in experiment [2] (setting [6]).
Consider `CN(C)c1ccc(C=CC(=O)NCCCC[C@H](NC(=O)[C@H](Cc2c[nH]c3ccccc23)NC(=O)OC(C)(C)C)C(=O)N[C@@H](CC(=O)O)C(=O)N[C@@H](Cc2ccccc2)C(N)=O)cc1` [Example 13, t-BOC-Trp-Lys(ε-N-(4-(dimethylamino)cinnamoyl))-Asp-PheNH2] (Boc-WK(X9)DF-NH2), for which the IC50 amounted to 120 nM in experiment [1] (setting [5]) and 2100 nM in experiment [2] (setting [6]).
With `CC(C)(C)OC(=O)N[C@@H](Cc1c[nH]c2ccccc12)C(=O)N[C@@H](CCCCNC(=O)CCc1ccc(O)cc1)C(=O)N[C@@H](CC(=O)O)C(=O)N[C@@H](Cc1cccc2ccccc12)C(N)=O` [Example 21, t-BOC-Trp-Lys(ε-N-(3-(4-hydroxyphenyl)propionyl))-Asp-α-NalNH2] (Boc-WK(Desaminotyrosyl)D[1Nal]-NH2), the half-maximal inhibitory concentration (IC50) in experiment [1] (setting [5]) came to 33 nM; in experiment [2] (setting [6]) it was 1200 nM.
For `CC(C)(C)OC(=O)N[C@@H](Cc1c[nH]c2ccccc12)C(=O)N[C@@H](CCCCNC(=O)C=Cc1ccccc1O)C(=O)N[C@@H](CC(=O)O)C(=O)N[C@@H](Cc1ccccc1)C(N)=O` [Example 22, t-BOC-Trp-Lys(ε-N-(2-hydroxycinnamoyl))-Asp-PheNH2] (Boc-WK(X17)DF-NH2), the concentration for half-maximal inhibition (IC50) in experiment [1] (setting [5]) came to 81 nM; in experiment [2] (setting [6]), 200 nM.
The like results for `COc1ccc(C=CC(=O)NCCCC[C@H](NC(=O)[C@H](Cc2c[nH]c3ccccc23)NC(=O)OC(C)(C)C)C(=O)N[C@@H](CC(=O)O)C(=O)N[C@@H](Cc2ccccc2)C(N)=O)c(OC)c1` [Example 23, t-BOC-Trp-Lys(ε-N-(2,4-dimethoxycinnamoyl))-Asp-PheNH2] (Boc-WK(X10)DF-NH2) were, in that order, 130 nM and 3000 nM.
For `CC(C)c1ccccc1NC(=O)NCCCC[C@H](NC(=O)[C@H](Cc1c[nH]c2ccccc12)NC(=O)OC(C)(C)C)C(=O)N[C@@H](CC(=O)O)C(=O)N[C@@H](Cc1ccccc1)C(N)=O` [Example 41, t-BOC-Trp-Lys(ε-N-(2-isopropylphenyl)aminocarbonyl)-Asp-PheNH2] (Boc-WK([CO-X24])DF-NH2), in experiment [2] (setting [6]), the IC50 was 5700 nM.
Turning to `CC(C)(C)OC(=O)N[C@@H](Cc1c[nH]c2ccccc12)C(=O)N[C@@H](CCCCNC(=O)Nc1ccc2ccccc2c1)C(=O)N[C@@H](CC(=O)O)C(=O)N[C@@H](Cc1ccccc1)C(N)=O` [Example 44, t-BOC-Trp-Lys(ε-N-(β-naphthyl)aminocarbonyl)-Asp-PheNH2] (Boc-WK([CO-βNA])DF-NH2), the IC50 came to 16 nM in experiment [1] (setting [5]) and 3200 nM in experiment [2].
In experiment [2], `COC(=O)c1ccccc1NC(=O)NCCCC[C@H](NC(=O)[C@H](Cc1c[nH]c2ccccc12)NC(=O)OC(C)(C)C)C(=O)N[C@@H](CC(=O)O)C(=O)N[C@@H](Cc1ccccc1)C(N)=O` [Example 45, t-BOC-Trp-Lys(ε-N-(2-(methoxycarbonyl)phenyl)aminocarbonyl)-Asp-PheNH2] (Boc-WK([CO-2Abz-OMe])DF-NH2) showed an IC50 of 3000 nM.
On to `COC(=O)c1cccc(NC(=O)NCCCC[C@H](NC(=O)[C@H](Cc2c[nH]c3ccccc23)NC(=O)OC(C)(C)C)C(=O)N[C@@H](CC(=O)O)C(=O)N[C@@H](Cc2ccccc2)C(N)=O)c1` [Example 46, t-BOC-Trp-Lys(ε-N-(3-(methoxycarbonyl)phenyl)aminocarbonyl)-Asp-PheNH2] (Boc-WK([CO-3Abz-OMe])DF-NH2), for which the half-maximal inhibitory concentration (IC50) in experiment [2] (setting [6]) was 1400 nM.
With `CC(C)(C)OC(=O)N[C@@H](Cc1c[nH]c2ccccc12)C(=O)N[C@@H](CCCCNC(=O)Nc1c(Cl)cccc1Cl)C(=O)N[C@@H](CC(=O)O)C(=O)N[C@@H](Cc1ccccc1)C(N)=O` [Example 47, t-BOC-Trp-Lys(ε-N-(2,6-dichlorophenyl)aminocarbonyl)-Asp-PheNH2] (Boc-WK([CO-X26])DF-NH2), the IC50 in experiment [2] (setting [6]) is 7000 nM.
`Cc1ccccc1NC(=O)NCCCC[C@H](NC(=O)C(F)Cc1c[nH]c2ccccc12)C(=O)N[C@@H](CC(=O)O)C(=O)N[C@@H](Cc1ccccc1)C(N)=O` (stereo partly shown) [Example 63, 2-Fluoro-3-(indol-3-yl)propionyl-Lys(ε-N-(2-methylphenyl)aminocarbonyl)-Asp-PheNH2]: the results for the IC50 in experiment [1] (setting [5]) and in experiment [2] (setting [6]) were 20 nM and 4500 nM, respectively.
In the case of `Cc1ccccc1NC(=O)NCCCC[C@H](NC(=O)C(C#N)Cc1c[nH]c2ccccc12)C(=O)N[C@@H](CC(=O)O)C(=O)N[C@@H](Cc1ccccc1)C(N)=O` (stereo partly shown) [Example 64, (2-Cyano-3-(3-indolyl)propionyl)-Lys(ε-N-(2-methylphenyl)aminocarbonyl)-Asp-PheNH2], the values for the IC50 in experiment [1] (setting [5]) and in experiment [2] (setting [6]) were 10 nM and 640 nM, respectively.
The like results for `Cc1ccccc1NC(=O)NCCCC[C@H](NC(=O)CCc1c[nH]c2ccccc12)C(=O)N(C)[C@@H](CC(=O)O)C(=O)N[C@@H](Cc1ccccc1)C(N)=O` [Example 65, 3-(3-Indolyl)propionyl-Lys(ε-N-(2-methylphenyl)aminocarbonyl)-(NMe)Asp-PheNH2] were, in that order, 68 nM and 10000 nM.
The like results for `CN(C(=O)[C@H](CCCCNC(=O)C=Cc1cccs1)NC(=O)[C@H](Cc1c[nH]c2ccccc12)NC(=O)OC(C)(C)C)[C@@H](CC(=O)O)C(=O)N[C@@H](Cc1ccccc1)C(N)=O` [Example 66, t-BOC-Trp-Lys-(ε-N-3-(2-thienyl)acrylyl)-(NMe)Asp-PheNH2] (Boc-WK(X3)[NMeD]F-NH2) were, in that order, 35 nM and 8100 nM.
